The values that follow are results of earlier work, collected in paper PMC6472032 (Marine Drugs, 2019).

For the data set the following is noted: in vivo; cited from earlier work.

On to desmopressin, for which the mean terminal half-life is given as 3.7 h.
